According to patent US20180140578A1, “METHODS AND COMPOSITIONS FOR THE DIAGNOSIS AND SELECTIVE TREATMENT OF CANCER” (Board of Regents of the University of Texas System, priority 2016, published 2018):
pIC50: −log10 of the molar value. Where two headings read alike, the source gives them in different places.

How the values were obtained:
[1] = tested on: indisulam resistant HCT-116 clones; experiment: Cell viability assay, indisulam resistant clones; assay type: cell-based, human; conditions: six indisulam resistant clones
Method: (§1) The methods for generating a population of barcoded HCT-116 cells were described before (20). […] Clones that appeared after the selection was then expanded and barcode genotyped to identify six clones with unique barcodes. […] Source data for exome sequencing data is available under NCBI SRA accession SRP068238. Bortezomib resistant clones were isolated by selection with 5 nM bortezomib, and MLN4924 resistant clones with 40 nM MLN4924.
(§2) 12-point dose responses were performed on 96-well assay plates with cell plating (1500-4000 cell per well) on day 1, compound addition on day 2, and survival measurement on day 5. Compounds were diluted in DMSO before adding to the cells. Final DMSO concentration was 0.5%. Cell survival assay was performed using CellTiter-Glo Luminescent Cell Viability Assay kit (Promega) that measures cellular ATP content. Luminescence was recorded by EnVison multimode plate reader (Perkin Elmer). IC50 was determined with GraphPad Prism using baseline correction (by normalizing to DMSO control), the asymmetric (five parameter) equation and least squares fit.

[2] = tested on: HCT-116 cells expressing RBM39-AID and TIR1; experiment: IAA dose response, cell viability (Cell-Titer Glo); assay type: cell-based, human; conditions: cells that express both RBM39-AID and TIR1
Method: (§3) TIR1 cDNA with a V5 tag sequence appended to its 3′ end was cloned into pLVX IRES zsGreenland packaged into lentivirus to infect both parental HCT-116 cells and RBM39-AID-3xFLAG knock-in cells. Following lentiviral delivery of TIR1, cells with top 5% strongest zsGreen expression were sorted by FACS. TIR1-V5 expression was confirmed by western blot with HRP conjugated anti-VS (Sigma-Aldrich, V2260, 1:5000). For examination of RBM39-AID-3xFLAG degradation, cells were treated with 500 μM IAA for 4 hours before being lysed for western blotting. For IAA dose response curves, cells were treated with various concentrations of IAA for 72 hours and ATP levels were quantified using Cell-Titer Glo (Promega).

RBM39-AID = experiment: Auxin induced degradation of RBM39 (western blotting); assay type: cell-based, human; conditions: cells that express both RBM39-AID and TIR1
Method: as §3

[3] = tested on: RBM39 in parental HCT-116 cells; experiment: Block of indisulam dependent RBM39 degradation, parental cells; assay type: cell-based, human
Text: (§4) (B) RBM39-AID is degraded in the presence of TIR1 and IAA in HCT-116 cells. (C) IAA and TIR1 dependent degradation of RBM39-AID results in cell death. Error bars represent standard errors of the mean (SEM) (n=3). […] The effect of bortezomib is attenuated in a bortezomib resistant cell line. […] The effect of MLN4924 is abrogated in an MLN4924 resistant cell line.
(§5) Proteins were resolved on SDS-PAGE and transferred to 0.5 μm nitrocellulose membranes. Membranes were blocked in 5% milk TBST for 30 min, and then anti-RBM39 antibodies (HPA001591, Sigma-Aldrich) were added in 5% milk (1:5000) and incubated on a shaker overnight at 4° C. After three 5 min washes with TBST, membranes were incubated with HRP-conjugated goat anti-rabbit secondary antibody (Bio-Rad) for 2 hr at room temperature. After three 5 min washes with TBST, membranes were developed with ECL (enhanced chemiluminescence) substrates.

[4] = tested on: RBM39 in PSMB5 A108T HCT-116 cells; experiment: Block of indisulam dependent RBM39 degradation, bortezomib resistant line; assay type: cell-based, human; conditions: PSMB5 A108T cell line
Text: as §4, §1, §5

HCT-116 cells = experiment: Cell viability assay (CellTiter-Glo); assay type: cell-based, human; conditions: for toxicity to HCT-116 cells: at concentrations as high as 50 μM; for pIC50: read-out: concentration required to reduce the viability by 50% (IC50), parental HCT-116 cells
Method: The identity for all human cell lines in this study was confirmed by short tandem repeat (STR) analysis. In addition, all human cell lines were confirmed to be mycoplasma free using a PCR based assay (Genatlantis). HCT-116 cells (ATCC) were grown in DMEM medium with 10% FBS and 2 mM L-glutamine. Lenti-X 293T cells (Clontech) were cultured in DMEM medium with 10% FBS and 2 mM L-glutamine. H1155 cells (a gift from Adi Gazdar and John Minna, UT Southwestern) were cultured in RPMI media with 5% FBS and 2 mM L-glutamine. SF9 cells (a gift from Hongtao Yu, UT Southwestern) were cultured in SF900 II serum free media (Life Technologies).
as §2

[5] = tested on: RBM39 in UBA3 A171T HCT-116 cells; experiment: Block of indisulam dependent RBM39 degradation, MLN4924 resistant line; assay type: cell-based, human; conditions: cells harboring UBA3 A171T mutation
Text: as §4, §1, §5

RBM39-Nluc = target: T1, RBM39-Nluc (Homo sapiens, UniProt Q14498+Q66K64); experiment: RBM39-Nluc degradation by Nano-Glo luciferase assay; assay type: cell-based; conditions: H1155 RBM39-Nluc cells; read-out: decrease in RBM39-Nluc activity (IC50)
T1 construct: Homology directed repair facilitates tagging of endogenous RBM39 by AID, 3xFLAG, AcGFP, or Nanoluciferase; endogenous in cells; host or cells: H1155 RBM39-Nluc knock-in cells
Method: NanoLuc was knocked-in to the 3-prime end of the RBM39 gene using the procedure described above yielding H1155 RBM39-Nluc cells. […] Luminescence was recorded by EnVision multimode plate reader (Perkin Elmer). IC50 was determined with GraphPad Prism using baseline correction (by normalizing to DMSO control), the asymmetric (five parameter) equation and least squares fit.

[6] = target: T2, DCAF15-3xFLAG and RBM39Δ150 (Homo sapiens, UniProt Q14498+Q66K64); experiment: RBM39Δ150 pulldown assay; assay type: binding; conditions: wild type RBM39Δ150
T2 construct: Full-length cDNAs encoding CUL4A, CUL4B, DCAF15, and DDB1 were cloned into pLVX IRES Puro; made in house; host or cells: RBM39Δ150: Sf9 (baculovirus); DCAF15-3xFLAG: anti-FLAG beads from HCT-116 or 293T cells stably expressing it
Method: RBM39 lacking the first 150 amino acids after the start codon (RBM39Δ150) was cloned into the pFastBac1 (Life Technologies) vector. Site-directed Mutagenesis of RBM39 was performed using Q5 site-directed mutagenesis kit (NEB). DCAF15-GST (C-terminal GST tag) and DDB1 were also cloned into pFastBac1. The production of baculovirus was carried out following vendor's instructions. Protein was expressed in SF9 cells by infection with each protein specific baculovirus, and cells were harvested 48 hr later and frozen in liquid nitrogen. For purification of RBM39Δ150, frozen cells were pulverized by cryomill and resuspended in lysis buffer (40 mM Tris, pH 7.5, 225 mM NaCl, 1× […] Protease inhibitor). The lysate was passed through a 22 gauge needle 2 times followed by ultracentrifugation at 25000 rpm for 30 min. Clarified lysate was incubated with Ni-NTA agarose (Qiagen) for 30 min with rotation at 4° C. Resin and bound protein were washed with wash buffer 1 (40 mM Tris, pH 7.5, 225 mM NaCl) followed by wash buffer 2 (40 mM Tris, pH 7.5, 20 mM imidazole, 225 mM NaCl). Proteins were eluted with elution buffer (40 mM Tris, pH 7.5, 300 mM imidazole, 225 mM NaCl) and concentrated to 0.5 ml. Concentrated proteins were then fractionated on Superdex 200 Increase 10/300 GL (GE Healthcare). RBM39Δ150 and mutants eluted at 14.8 ml after injection and were stored at −80° C. in 40 mM Tris, pH 7.5, 225 mM NaCl. For purification of DCAF15-GST/DDB1, Sf9 cells co-infected with DCAF15-GST and DDB1 baculoviruses were lysed in PBS supplemented with 0.1% NP40, 1× […] Protease inhibitors, and 0.5 mM PMSF. The lysate was passed through a 22 gauge needle 2 times followed by centrifugation at 7000 rpm for 15 min. Clarified lysate was incubated with Glutathione Sepharose 4B resin (GE healthcare) for 30 min with rotation at 4° C. Resin was washed with PBS for three times before elution with 50 mM Tris, 10 mM glutathione, pH 8.
HCT-116 cells stably expressing DDB1-3xFLAG, CUL4A-3xFLAG, CUL4B-3xFLAG, or to DCAF15-3xFLAG were lysed in 1×PBS, 0.1% NP40, and 1× […] protease inhibitor (1 ml per […] plate). […]

[7] = tested on: DCAF15-3xFLAG and mutant RBM39Δ150 (M265L, E271Q, P272S); experiment: RBM39Δ150 pulldown assay, mutant RBM39; assay type: binding, human; conditions: M265L, E271Q, P272S
Method: RBM39 lacking the first 150 amino acids after the start codon (RBM39Δ150) was cloned into the pFastBac1 (Life Technologies) vector. Site-directed Mutagenesis of RBM39 was performed using Q5 site-directed mutagenesis kit (NEB). DCAF15-GST (C-terminal GST tag) and DDB1 were also cloned into pFastBac1. The production of baculovirus was carried out following vendor's instructions. Protein was expressed in SF9 cells by infection with each protein specific baculovirus, and cells were harvested 48 hr later and frozen in liquid nitrogen. For purification of RBM39Δ150, frozen cells were pulverized by cryomill and resuspended in lysis buffer (40 mM Tris, pH 7.5, 225 mM NaCl, 1× […] Protease inhibitor). The lysate was passed through a 22 gauge needle 2 times followed by ultracentrifugation at 25000 rpm for 30 min. Clarified lysate was incubated with Ni-NTA agarose (Qiagen) for 30 min with rotation at 4° C. Resin and bound protein were washed with wash buffer 1 (40 mM Tris, pH 7.5, 225 mM NaCl) followed by wash buffer 2 (40 mM Tris, pH 7.5, 20 mM imidazole, 225 mM NaCl). Proteins were eluted with elution buffer (40 mM Tris, pH 7.5, 300 mM imidazole, 225 mM NaCl) and concentrated to 0.5 ml. Concentrated proteins were then fractionated on Superdex 200 Increase 10/300 GL (GE Healthcare). […]

[8] = tested on: HCT-116 RBM39 G268V knock-in cells; experiment: Cell viability assay, RBM39 G268V knock-in; assay type: cell-based, human; conditions: at concentrations as high as 50 μM
Method: as §2
sgRNA targeting RBM39 (5′-[…]-3′) was cloned into the pSpCas9(BB)-2A-Puro (PX459) vector (Addgene 62988). For RBM39 G268V knock-in, 1 million HCT-116 or H1155 cells were nucleofected (using 4D-Nucleofector, Lonza) with PX459-RBM39 sgRNA and the single-stranded oligo 5′-[…] […] […] […]-3′ (SEQ ID NO: 13).

T2 sequence (Q66K64 whole entry, stated change not applied): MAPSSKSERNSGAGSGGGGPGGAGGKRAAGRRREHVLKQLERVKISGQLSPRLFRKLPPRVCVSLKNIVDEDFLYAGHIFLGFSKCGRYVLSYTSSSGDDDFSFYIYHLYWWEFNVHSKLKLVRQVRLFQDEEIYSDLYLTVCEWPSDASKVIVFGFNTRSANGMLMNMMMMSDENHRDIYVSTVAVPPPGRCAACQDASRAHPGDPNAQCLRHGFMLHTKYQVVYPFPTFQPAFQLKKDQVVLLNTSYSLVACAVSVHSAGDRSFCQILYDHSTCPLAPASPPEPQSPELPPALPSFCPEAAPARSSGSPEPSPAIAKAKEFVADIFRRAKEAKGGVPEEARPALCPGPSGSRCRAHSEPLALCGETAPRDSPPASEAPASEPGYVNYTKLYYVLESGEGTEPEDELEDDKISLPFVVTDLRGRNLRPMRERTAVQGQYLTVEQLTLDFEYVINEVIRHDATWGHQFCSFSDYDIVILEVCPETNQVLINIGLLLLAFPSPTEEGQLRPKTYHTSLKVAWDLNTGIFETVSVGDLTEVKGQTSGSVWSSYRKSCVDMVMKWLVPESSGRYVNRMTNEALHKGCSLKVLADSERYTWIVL
T2 sequence (Q14498 151-530 limits assumed, stated change not applied): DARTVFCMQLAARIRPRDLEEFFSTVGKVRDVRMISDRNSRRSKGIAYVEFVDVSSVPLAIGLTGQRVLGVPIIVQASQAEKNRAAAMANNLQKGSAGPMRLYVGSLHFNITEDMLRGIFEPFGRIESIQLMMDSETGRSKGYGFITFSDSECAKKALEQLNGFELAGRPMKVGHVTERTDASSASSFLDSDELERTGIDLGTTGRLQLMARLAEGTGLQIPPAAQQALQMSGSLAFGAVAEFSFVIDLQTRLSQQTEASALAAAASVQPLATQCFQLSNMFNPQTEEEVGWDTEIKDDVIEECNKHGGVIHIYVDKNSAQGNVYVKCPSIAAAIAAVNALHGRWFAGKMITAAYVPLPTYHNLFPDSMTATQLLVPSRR
T2 sequence (Q16531 whole entry partner): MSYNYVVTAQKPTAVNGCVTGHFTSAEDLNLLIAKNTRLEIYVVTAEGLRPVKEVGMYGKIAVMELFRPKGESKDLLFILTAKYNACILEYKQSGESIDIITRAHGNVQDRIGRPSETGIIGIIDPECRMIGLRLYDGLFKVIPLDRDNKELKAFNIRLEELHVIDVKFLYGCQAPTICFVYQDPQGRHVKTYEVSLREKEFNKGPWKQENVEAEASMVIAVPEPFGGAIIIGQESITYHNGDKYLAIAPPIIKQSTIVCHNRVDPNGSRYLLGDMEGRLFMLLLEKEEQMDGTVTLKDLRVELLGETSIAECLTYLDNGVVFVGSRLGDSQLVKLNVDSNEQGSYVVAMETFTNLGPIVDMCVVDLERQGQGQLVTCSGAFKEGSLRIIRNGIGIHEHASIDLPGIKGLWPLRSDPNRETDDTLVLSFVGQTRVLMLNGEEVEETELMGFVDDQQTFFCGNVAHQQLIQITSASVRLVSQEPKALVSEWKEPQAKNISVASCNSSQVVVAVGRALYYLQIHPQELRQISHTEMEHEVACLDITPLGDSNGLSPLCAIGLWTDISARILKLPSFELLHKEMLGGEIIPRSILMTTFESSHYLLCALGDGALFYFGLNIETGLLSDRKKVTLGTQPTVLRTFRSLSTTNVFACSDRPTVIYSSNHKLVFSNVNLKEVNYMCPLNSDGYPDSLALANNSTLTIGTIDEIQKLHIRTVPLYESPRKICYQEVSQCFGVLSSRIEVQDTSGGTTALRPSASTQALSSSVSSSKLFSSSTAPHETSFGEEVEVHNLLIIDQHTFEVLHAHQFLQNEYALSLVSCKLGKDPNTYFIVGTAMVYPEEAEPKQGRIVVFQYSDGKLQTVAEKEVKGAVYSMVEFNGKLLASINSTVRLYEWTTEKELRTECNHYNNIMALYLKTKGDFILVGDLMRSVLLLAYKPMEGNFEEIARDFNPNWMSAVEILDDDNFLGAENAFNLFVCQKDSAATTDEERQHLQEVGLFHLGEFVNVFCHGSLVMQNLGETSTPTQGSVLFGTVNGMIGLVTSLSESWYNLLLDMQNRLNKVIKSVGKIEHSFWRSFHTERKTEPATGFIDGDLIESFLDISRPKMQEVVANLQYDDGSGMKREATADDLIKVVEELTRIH

CC(=O)O[C@H]1C(=O)[C@@]2(C)[C@H]([C@H](OC(=O)c3ccccc3)[C@]3(O)C[C@H](OC(=O)[C@H](O)[C@@H](NC(=O)c4ccccc4)c4ccccc4)C(C)=C1C3(C)C)[C@]1(OC(C)=O)CO[C@@H]1C[C@@H]2O [paclitaxel]
resistance of indisulam resistant clones to paclitaxel [1]: None of the clones were resistant

O=C(O)Cc1c[nH]c2ccccc12 [IAA, 3-indoleacetic acid]
cell viability [2]: loss in cell viability
RBM39 levels (RBM39-AID): decrease in RBM39 levels

CC(C)C[C@H](NC(=O)[C@H](Cc1ccccc1)NC(=O)c1cnccn1)B(O)O [bortezomib]
concentration of bortezomib that blocked the degradation of RBM39 in response to indisulam ([3]; parental cells, 2 h pretreatment, then 6 h 2 μM indisulam): 10 nM
level of bortezomib required for comparable rescue of RBM39 levels, relative to parental [4]: 10 fold

CC1(C)O[C@@H]2[C@@H](CO[C@@]3(COS(N)(=O)=O)OC(C)(C)O[C@@H]23)O1 [topirimate, topiramate]
toxicity to HCT-116 cells (HCT-116 cells): non-toxic

CC(=O)Nc1nnc(S(N)(=O)=O)s1 [acetazolamide]
toxicity to HCT-116 cells (HCT-116 cells): non-toxic

NS(=O)(=O)OC[C@@H]1C[C@@H](n2ccc3c(N[C@H]4CCc5ccccc54)ncnc32)C[C@@H]1O [MLN4924]
effect on degradation of RBM39 in response to indisulam ([3]; HCT-116 cells): blocked the degradation of RBM39
effect on degradation of RBM39 in response to indisulam [5]: did not observe this effect

Nc1ccc(S(=O)(=O)Nc2cnc3c(Cl)cccc3n2)cc1 [CQS, chloroquinoxaline sulfonamide]
pIC50 (HCT-116 cells; Homo sapiens): 5.15
DC50 (RBM39-Nluc): 2.4 µM

O=C(NS(=O)(=O)c1ccc(Br)s1)c1ccc(Cl)cc1Cl [tasisulam]
recruitment of RBM39Δ150 to DCAF15 [6]: recruit RBM39Δ150 to DCAF15 in a dose-dependent manner
pIC50 (HCT-116 cells): 5.19
recruitment of indisulam-resistant mutants of RBM39 to DCAF15 [7]: not effectively recruited
sensitivity of cell line carrying RBM39 G268V [8]: insensitive
pIC50 (RBM39-Nluc): 5.25
